row,SMILES,melting point
1,Cl.O=C(NN1CCOCC1)c1nc(-c2ccc(Cl)cc2Cl)n(-c2ccc(Cl)cc2)n1,224 to 226 °C
2,O=C(NN1CCCCC1)c1nc(-c2ccccn2)n(-c2ccc(Cl)cc2Cl)n1,191 to 193 °C
3,O=C(NN1CCCCC1)c1nc(-c2cccnc2)n(-c2ccc(Cl)cc2Cl)n1,219 °C
4,CC(C)(C)ONC(=O)c1nc(-c2ccc(Cl)cc2)n(-c2ccc(Cl)cc2Cl)n1,150 to 152 °C
5,Cl.O=C(NN1CCCC1)c1nc(-c2ccc(Cl)cc2Cl)n(-c2ccc(Cl)cc2)n1,234 to 236 °C (dec.)
6,"Cl.O=C(NN1CCCC1)c1nc(-c2ccc(Cl)cc2)n(-c2ccc(Cl)cc2Cl)n1 [Example 2, 5-(4-Chlorophenyl)-1-(2,4-dichlorophenyl)-N-(pyrrolidin-1-yl)-1H-1,2,4-triazole-3-carboxamide hydrochloride]",248 to 255 °C (dec.)
7,"O=C(NC1CCCCC1)c1nc(-c2ccc(Cl)cc2)n(-c2ccc(Cl)cc2Cl)n1 [Example 3, 5-(4-Chlorophenyl)-N-cyclohexyl-1-(2,4-dichlorophenyl)-1H-1,2,4-triazole-3-carboxamide]",186 to 188 °C

# The remaining lines, values ahead:
row,melting point,SMILES
1,238 to 240 °C (dec.),Cl.O=C(NN1CCCCC1)c1nc(-c2ccc(Cl)cc2)n(-c2ccc(Cl)cc2Cl)n1
2,159 to 161 °C,O=C(NN1CCCCC1)c1nc(-c2ccc(Cl)cc2Cl)n(-c2ccc(C(F)(F)F)cc2)n1
3,184 to 186 °C,O=C(NN1CCOCC1)c1nc(-c2ccc(Cl)cc2)n(-c2ccc(Cl)cc2Cl)n1

# Source: patent US7319110B2, “1H-1,2,4-triazole-3-carboxamide derivatives having cannabinoid-CB1 receptor agonistic, partial agonistic, inverse agonistic or antagonistic activity” (Solvay Pharmaceuticals B.V., priority 2002, dated 2008)
